The values below come from US8563578B2, “Antitumor properties of NO modified protease inhibitors” (Onconox APS, priority 2008, dated 2013).

The subject of this assay is B16 mouse melanoma. The assay is described as follows: Cell viability, B16 cells. Format: cell-based. As to conditions: read-out: reduction of cell viability. An excerpt:
Rat glioma C6 and human glioblastoma U251 cell lines were a kind gift from Dr. Pedro Tranque (Universidad de Castilla-La Mancha, Albacete, Spain), murine melanoma B 16, and human adenocarcinoma HeLa, were a kind gift from Dr. Sinisa Radulovic (Institute for Oncology and Radiology of Serbia, Belgrade, Serbia) while mouse fibrosarcoma L929 was obtained from the European Collection of Animal Cell Cultures (Salisbury, UK). Human breast HCC1419 and prostate PC-3 cells were purchased from LGC Promochem srl (Venezia, Italy). Primary mouse fibroblasts and rat astrocytes were prepared as described (Mijatovic et al. 2004). […]
Reduction of 3-4,5-dimethylthiazol-2-yl)-2,5-diphenyltetrazolium bromide (MTT) to formazan depends on mitochondrial activity of cultured cells, absorption of crystal violet dye correlates with the number of adherent, live cells, while the release of cytosolic lactate dehydrogenase (LDH) indicates the disruption of membrane integrity caracteristic for necrotic cells. […] Mitohondrial-dependent production of formazan and intensity of absorbed crystal violet by adherent cells were assessed by an automated microplate reader at 570 nm, while the pyruvate-mediated conversion of 2,4-dinitrophenylhydrazine into visible hydrazone precipitate in LDH assay was measured at 492 nm. […]
FIG. 2. […] Cell viability was then evaluated by CV test. […]

As for `CC(C)(C)NC(=O)[C@@H]1C[C@@H]2CCCC[C@@H]2CN1C[C@@H](O[N+](=O)[O-])[C@H](Cc1ccccc1)NC(=O)[C@H](CC(N)=O)NC(=O)c1ccc2ccccc2n1` [Saq-NO2, nitric ester of Saquinavir], the cytotoxicity at 18.8 µM is about 70%.
